Assay results as given in paper PMC6858497 (The Journal of physiology, 2019).
Values joined by “and” are separate entries in the source; they are usually repeats but may differ in a detail not shown here. Identical values can stand only once.

What was measured:
[1] = tested on: NMDAR-EPSCs in hippocampal interneurons (CA1 s.r./s.l.m.); test: Whole-cell patch-clamp of NMDAR-EPSCs in acute hippocampal slices; format: cell-based, mouse; conditions: for NMDAR-EPSC peak amplitude, % of baseline: 10 μM, +40 mV, P21–28 slices
[2] = tested on: NMDAR-EPSCs in hippocampal CA1 pyramidal cells; test: as above; format: cell-based, mouse; conditions: for NMDAR-EPSC peak amplitude, % of baseline: 10 μM, +40 mV, P21–28 slices; for effect on EPSC decay time: treatment versus baseline, paired t test, 10 μM (spermine 100 μM)
GluN1–1a/2B = GluN1–1a/2B (Rattus norvegicus, UniProt P35439+Q00960); test: Two-electrode voltage-clamp recordings, Xenopus oocytes; format: cell-based; conditions: for nH (Hill coefficient): inhibition
Sequence of GluN1–1a/2B (Q00960 27-1482, other chains not shown): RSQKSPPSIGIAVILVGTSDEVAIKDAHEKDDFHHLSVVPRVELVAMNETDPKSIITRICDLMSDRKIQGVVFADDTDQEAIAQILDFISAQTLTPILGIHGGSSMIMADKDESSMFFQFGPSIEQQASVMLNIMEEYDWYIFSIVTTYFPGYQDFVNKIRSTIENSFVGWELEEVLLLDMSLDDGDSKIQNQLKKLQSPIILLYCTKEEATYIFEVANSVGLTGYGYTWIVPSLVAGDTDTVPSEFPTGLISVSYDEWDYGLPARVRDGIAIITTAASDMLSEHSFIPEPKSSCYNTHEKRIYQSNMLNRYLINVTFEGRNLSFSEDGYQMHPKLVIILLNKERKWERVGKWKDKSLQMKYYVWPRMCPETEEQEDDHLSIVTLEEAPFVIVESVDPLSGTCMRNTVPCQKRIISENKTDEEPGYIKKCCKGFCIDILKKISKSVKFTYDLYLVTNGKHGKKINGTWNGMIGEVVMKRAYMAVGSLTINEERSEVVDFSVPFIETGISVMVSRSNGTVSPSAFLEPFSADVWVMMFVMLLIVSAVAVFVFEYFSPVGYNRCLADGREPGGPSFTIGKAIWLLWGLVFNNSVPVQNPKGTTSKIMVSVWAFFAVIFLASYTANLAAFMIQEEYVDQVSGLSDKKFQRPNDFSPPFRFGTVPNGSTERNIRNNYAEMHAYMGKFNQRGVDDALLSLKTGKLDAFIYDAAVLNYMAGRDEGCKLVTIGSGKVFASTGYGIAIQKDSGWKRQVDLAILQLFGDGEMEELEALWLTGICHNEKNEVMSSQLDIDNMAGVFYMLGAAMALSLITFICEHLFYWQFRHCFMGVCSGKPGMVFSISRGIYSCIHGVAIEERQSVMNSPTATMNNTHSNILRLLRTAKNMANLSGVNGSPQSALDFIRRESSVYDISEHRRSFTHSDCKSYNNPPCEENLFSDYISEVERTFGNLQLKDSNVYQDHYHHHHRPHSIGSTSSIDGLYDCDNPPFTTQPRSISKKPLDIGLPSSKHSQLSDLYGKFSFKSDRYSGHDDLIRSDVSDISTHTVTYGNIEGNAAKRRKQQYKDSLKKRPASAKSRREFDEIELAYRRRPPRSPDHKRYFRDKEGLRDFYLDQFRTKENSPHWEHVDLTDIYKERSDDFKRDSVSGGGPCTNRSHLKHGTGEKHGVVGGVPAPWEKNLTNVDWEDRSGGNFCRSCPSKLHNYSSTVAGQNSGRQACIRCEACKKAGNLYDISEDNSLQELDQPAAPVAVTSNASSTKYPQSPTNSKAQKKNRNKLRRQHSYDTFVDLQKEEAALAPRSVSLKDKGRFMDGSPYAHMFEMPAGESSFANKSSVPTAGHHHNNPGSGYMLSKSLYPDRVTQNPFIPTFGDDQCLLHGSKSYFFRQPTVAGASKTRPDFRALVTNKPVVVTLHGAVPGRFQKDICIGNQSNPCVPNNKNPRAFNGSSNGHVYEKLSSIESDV

GluN1–1a/2D = GluN1–1a/2D (Rattus norvegicus, UniProt P35439+Q62645); test: as above; format: cell-based; conditions: for nH (Hill coefficient): inhibition
Sequence of GluN1–1a/2D (Q62645 28-1323, other chains not shown): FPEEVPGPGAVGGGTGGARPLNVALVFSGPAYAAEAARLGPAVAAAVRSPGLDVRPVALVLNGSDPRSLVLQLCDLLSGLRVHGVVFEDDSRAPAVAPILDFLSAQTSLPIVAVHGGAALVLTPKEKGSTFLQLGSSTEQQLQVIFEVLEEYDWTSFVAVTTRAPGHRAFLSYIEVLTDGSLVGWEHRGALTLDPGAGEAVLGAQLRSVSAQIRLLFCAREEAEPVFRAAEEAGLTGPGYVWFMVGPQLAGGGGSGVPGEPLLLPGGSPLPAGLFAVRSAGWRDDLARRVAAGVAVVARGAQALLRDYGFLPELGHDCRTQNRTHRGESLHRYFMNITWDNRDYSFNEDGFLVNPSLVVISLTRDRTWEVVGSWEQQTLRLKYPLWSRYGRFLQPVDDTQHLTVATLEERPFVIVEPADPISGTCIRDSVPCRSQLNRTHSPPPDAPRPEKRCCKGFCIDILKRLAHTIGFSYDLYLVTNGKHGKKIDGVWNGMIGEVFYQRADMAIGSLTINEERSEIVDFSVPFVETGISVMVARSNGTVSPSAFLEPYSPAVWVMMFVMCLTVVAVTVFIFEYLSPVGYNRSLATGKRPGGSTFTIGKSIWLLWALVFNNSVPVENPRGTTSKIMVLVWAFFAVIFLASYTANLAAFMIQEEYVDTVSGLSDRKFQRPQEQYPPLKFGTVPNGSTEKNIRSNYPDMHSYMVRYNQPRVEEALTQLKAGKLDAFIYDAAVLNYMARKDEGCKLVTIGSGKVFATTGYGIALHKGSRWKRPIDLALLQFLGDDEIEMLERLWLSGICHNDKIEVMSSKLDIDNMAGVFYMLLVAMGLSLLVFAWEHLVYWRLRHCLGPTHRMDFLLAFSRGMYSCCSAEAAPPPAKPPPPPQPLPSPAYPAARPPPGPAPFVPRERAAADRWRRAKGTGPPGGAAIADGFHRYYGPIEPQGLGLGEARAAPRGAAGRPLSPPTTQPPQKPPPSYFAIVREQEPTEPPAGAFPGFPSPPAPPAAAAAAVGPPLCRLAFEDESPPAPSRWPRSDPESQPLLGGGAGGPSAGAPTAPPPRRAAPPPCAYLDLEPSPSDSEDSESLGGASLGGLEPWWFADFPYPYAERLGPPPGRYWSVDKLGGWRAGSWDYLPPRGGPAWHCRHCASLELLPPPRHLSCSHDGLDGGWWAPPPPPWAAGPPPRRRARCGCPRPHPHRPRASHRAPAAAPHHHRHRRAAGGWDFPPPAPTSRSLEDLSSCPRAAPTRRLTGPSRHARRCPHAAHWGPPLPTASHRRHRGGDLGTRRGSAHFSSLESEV

GluN1–1a/2BC1/2DC2 = GluN1–1a/2BC1/2DC2 (Rattus norvegicus, UniProt P35439+Q00959+Q00960+Q62645, A876H/F846L/G856D/H848F/K857R/M851T/M860L/Q845K/R869K/V861L/V866F); test: as above; format: cell-based; conditions: for nH (Hill coefficient): inhibition; for Relative Imin: fitted minimal response relative to control
[3] = channel block, −20 mV, + 1 mM Mg2+
[4] = channel block, −20 mV, control (absence of Mg2+)
[5] = channel block, −40 mV, + 1 mM Mg2+
[6] = channel block, −40 mV, control (absence of Mg2+)
[7] = channel block, −60 mV, + 1 mM Mg2+
[8] = channel block, −60 mV, control (absence of Mg2+)
[9] = Mg2+ block, holding potential −40 mV
[10] = Mg2+ block, holding potential −60 mV
[11] = Mg2+ block, holding potential −80 mV
[12] = Mg2+ block, holding potential −100 mV
[13] = Woodhull model, current-voltage relationship with 0.1 mM Mg2+
[14] = IC50, channel block, −20 mV, + 1 mM Mg2+
[15] = IC50, channel block, −20 mV, control (absence of Mg2+)
[16] = IC50, channel block, −40 mV, + 1 mM Mg2+
[17] = IC50, channel block, −40 mV, control (absence of Mg2+)
[18] = IC50, channel block, −60 mV, + 1 mM Mg2+
[19] = IC50, channel block, −60 mV, control (absence of Mg2+)
[20] = fitted minimal response relative to control, isoform 1a
[21] = isoform 1a, 300 μM glutamate plus 100 μM glycine

Compound: Cc1ncc(CNC(=O)c2cnc(CNS(=O)(=O)c3ccc(F)c(Cl)c3)cn2)s1 [MPX-004]
- NMDAR-EPSC peak amplitude, % of baseline [1]: 98 ± 5 % of baseline
- NMDAR-EPSC peak amplitude, % of baseline [2]: 45 ± 2 % of baseline
- effect on EPSC decay time [2]: significantly slowed

Compound: CC12CC3CC(C)(C1)CC(N)(C3)C2 [memantine]
- nH (GluN1–1a/2B; [3]): 1.1
- nH (GluN1–1a/2B; [4]): 0.9
- nH (GluN1–1a/2B; [5]): 1.0
- nH (GluN1–1a/2B; [6]): 1.0
- nH (GluN1–1a/2B; [7]): 1.1
- nH (GluN1–1a/2B; [8]): 1.0
- nH (GluN1–1a/2D; [3]): 1.0
- nH (GluN1–1a/2D; [4]): 1.1
- nH (GluN1–1a/2D; [5]): 1.0
- nH (GluN1–1a/2D; [6]): 1.1
- nH (GluN1–1a/2D; [7]): 1.0
- nH (GluN1–1a/2D; [8]): 1.1
- nH (GluN1–1a/2BC1/2DC2; [3]): 1.0
- nH (GluN1–1a/2BC1/2DC2; [4]): 1.1
- nH (GluN1–1a/2BC1/2DC2; [5]): 0.9
- nH (GluN1–1a/2BC1/2DC2; [6]): 1.0
- nH (GluN1–1a/2BC1/2DC2; [7]): 0.9
- nH (GluN1–1a/2BC1/2DC2; [8]): 1.0

Compound: [Mg+2] [Mg^2+]
- IC50 (GluN1–1a/2B; [9]): 161 ± 11.8 µM
- nH (GluN1–1a/2B; [9]): 0.9
- IC50 (GluN1–1a/2B; [10]): 26 µM and 25.5 µM
- nH (GluN1–1a/2B; [10]): 1.0
- IC50 (GluN1–1a/2B; [11]): 5.5 ± 0.4 µM
- nH (GluN1–1a/2B; [11]): 1.0
- IC50 (GluN1–1a/2B; [12]): 1.6 ± 0.3 µM
- nH (GluN1–1a/2B; [12]): 0.9
- δ, fraction of the membrane electric field sensed by the blocking site (GluN1–1a/2B; Woodhull model, 0.1 mM Mg2+): 1.08
- K0.5(0 mV), Mg2+ concentration producing half-maximal block at 0 mV (GluN1–1a/2B; [13]): 4.5 mM
- IC50 (GluN1–1a/2D; [9]): 937 ± 85.9 µM
- nH (GluN1–1a/2D; [9]): 1.0
- IC50 (GluN1–1a/2D; [10]): 254 µM
- nH (GluN1–1a/2D; [10]): 1.0
- IC50 (GluN1–1a/2D; [11]): 72.5 ± 1.8 µM
- nH (GluN1–1a/2D; [11]): 1.0
- IC50 (GluN1–1a/2D; [12]): 25.1 ± 0.4 µM
- nH (GluN1–1a/2D; [12]): 1.0
- δ, fraction of the membrane electric field sensed by the blocking site (GluN1–1a/2D; Woodhull model, 0.1 mM Mg2+): 0.82
- K0.5(0 mV), Mg2+ concentration producing half-maximal block at 0 mV (GluN1–1a/2D; [13]): 11 mM
- IC50 (GluN1–1a/2BC1/2DC2; [9]): 518 ± 14.3 µM
- nH (GluN1–1a/2BC1/2DC2; [9]): 0.8
- IC50 (GluN1–1a/2BC1/2DC2; [10]): 80 µM and 79.2 µM
- nH (GluN1–1a/2BC1/2DC2; [10]): 0.9
- IC50 (GluN1–1a/2BC1/2DC2; [11]): 19.9 ± 0.8 µM
- nH (GluN1–1a/2BC1/2DC2; [11]): 0.9
- IC50 (GluN1–1a/2BC1/2DC2; [12]): 6.8 ± 0.5 µM
- nH (GluN1–1a/2BC1/2DC2; [12]): 0.9
- δ, fraction of the membrane electric field sensed by the blocking site (GluN1–1a/2BC1/2DC2; Woodhull model, 0.1 mM Mg2+): 0.95
- K0.5(0 mV), Mg2+ concentration producing half-maximal block at 0 mV (GluN1–1a/2BC1/2DC2; [13]): 6.6 mM

Compound: CNC1(c2ccccc2Cl)CCCCC1=O (centres unmarked) [ketamine]
- IC50 (GluN1–1a/2B; [14]): 16.3 ± 1.9 µM
- IC50 (GluN1–1a/2B; [15]): 4.2 ± 0.7 µM
- IC50 (GluN1–1a/2B; [16]): 19.2 ± 2 µM
- IC50 (GluN1–1a/2B; [17]): 2.1 ± 0.3 µM
- IC50 (GluN1–1a/2B; [18]): 17 ± 2 µM
- IC50 (GluN1–1a/2B; [19]): 1 ± 0.1 µM
- nH (GluN1–1a/2B; [3]): 1.2
- nH (GluN1–1a/2B; [4]): 1.0
- nH (GluN1–1a/2B; [5]): 1.3
- nH (GluN1–1a/2B; [6]): 1.0
- nH (GluN1–1a/2B; [7]): 1.1
- nH (GluN1–1a/2B; [8]): 1.0
- IC50 (GluN1–1a/2D; [14]): 4.5 ± 0.5 µM
- IC50 (GluN1–1a/2D; [15]): 3.8 ± 0.2 µM
- IC50 (GluN1–1a/2D; [16]): 3.5 ± 0.5 µM
- IC50 (GluN1–1a/2D; [17]): 2.4 ± 0.2 µM
- IC50 (GluN1–1a/2D; [18]): 2.6 ± 0.4 µM
- IC50 (GluN1–1a/2D; [19]): 1.3 ± 0.1 µM
- nH (GluN1–1a/2D; [3]): 1.0
- nH (GluN1–1a/2D; [4]): 1.0
- nH (GluN1–1a/2D; [5]): 1.0
- nH (GluN1–1a/2D; [6]): 1.0
- nH (GluN1–1a/2D; [7]): 1.1
- nH (GluN1–1a/2D; [8]): 1.0

Compound: C[C@@H]([C@@H](O)c1ccc(O)cc1)N1CCC(O)(c2ccccc2)CC1 [CP-101,606]
- nH (Hill coefficient) (GluN1–1a/2B; isoform 1a): 1.4
- maximal inhibition (GluN1–1a/2B; isoform 1a): ~ 95%
- NMDAR-EPSC peak amplitude, % of baseline [1]: 30 ± 3 % of baseline
- effect on EPSC decay time ([1]; treatment versus baseline, paired t test, 10 μM (spermine 100 μM)): unchanged
- nH (Hill coefficient) (GluN1–1a/2BC1/2DC2; isoform 1a): 1.4
- maximal inhibition (GluN1–1a/2BC1/2DC2; isoform 1a): ~ 65%
- NMDAR-EPSC peak amplitude, % of baseline [2]: 50 ± 3 % of baseline
- effect on EPSC decay time [2]: significantly accelerated

Compound: COc1ccc2nc(/C=C/c3cccc([N+](=O)[O-])c3)n(-c3ccc(C(=O)O)cc3)c(=O)c2c1 [QNZ-46]
- Relative Imin (GluN1–1a/2B; at 30 μM, isoform 1a): 76 ± 1%
- Relative Imin (GluN1–1a/2D; [20]): −3 ± 1%
- nH (Hill coefficient) (GluN1–1a/2D; isoform 1a): 1.0
- maximal inhibition (GluN1–1a/2D; isoform 1a): ~ 100%
- IC50 (GluN1–1a/2D; [21]): 2.7 ± 0.1 µM
- Relative Imin (GluN1–1a/2BC1/2DC2; isoform 1a): 4 ± 1 %
- nH (Hill coefficient) (GluN1–1a/2BC1/2DC2; isoform 1a): 1.0
- maximal inhibition (GluN1–1a/2BC1/2DC2; isoform 1a): ~ 100%
- IC50 (GluN1–1a/2BC1/2DC2; [21]): 10 ± 1 µM

Compound: Cc1ccc2[nH]c(=O)c(C3=NN(C(=O)CCC(=O)O)C(c4ccc(Br)cc4)C3)c(-c3ccccc3)c2c1 (centres unmarked) [DQP-1105]
- Relative Imin (GluN1–1a/2B; at 30 μM, isoform 1a): 58 ± 2%
- Relative Imin (GluN1–1a/2D; [20]): −3 ± 1%
- nH (Hill coefficient) (GluN1–1a/2D; isoform 1a): 1.0
- maximal inhibition (GluN1–1a/2D; isoform 1a): ~ 100%
- IC50 (GluN1–1a/2D; [21]): 2.2 ± 0.1 µM
- Relative Imin (GluN1–1a/2BC1/2DC2; isoform 1a): −8 ± 2 %
- nH (Hill coefficient) (GluN1–1a/2BC1/2DC2; isoform 1a): 0.8
- maximal inhibition (GluN1–1a/2BC1/2DC2; isoform 1a): ~ 100%
- IC50 (GluN1–1a/2BC1/2DC2; [21]): 13 ± 1 µM

Compound: Cc1nccn1Cc1cc(-c2ccc(F)c(C(F)F)c2)cnn1.Cl.Cl [EVT-101]
- Relative Imin (GluN1–1a/2B; [20]): 3 ± 1%
- nH (Hill coefficient) (GluN1–1a/2B; isoform 1a): 1.0
- maximal inhibition (GluN1–1a/2B; isoform 1a): ~ 95%
- IC50 (GluN1–1a/2B; [21]): 0.009 ± 0.001 µM
- Relative Imin (GluN1–1a/2D; at 3 μM, isoform 1a): 92 ± 2%
- Relative Imin (GluN1–1a/2BC1/2DC2; isoform 1a): 37 ± 2 %
- nH (Hill coefficient) (GluN1–1a/2BC1/2DC2; isoform 1a): 1.1
- maximal inhibition (GluN1–1a/2BC1/2DC2; isoform 1a): ~ 65%
- IC50 (GluN1–1a/2BC1/2DC2; [21]): 0.012 ± 0.001 µM
